Data taken from PubChem BioAssay AID504874 (NMMLSC, 2011).
The source made the active and inactive calls.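 Rule for the calls: active = normalized viability below 40% relative to DMSO and staurosporine controls, called cytotoxic; inactive = the rest.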

System: L1210 murine leukemia viability, fluorescein diacetate flow cytometry, 48 h
Test: viability of murine L1210 leukemia line – cell-based, cytotoxicity control for T cell immune modulator project (AID 504874)
Conditions: at 20 µM; active compounds read low

Structure (SMILES) | viability
c1ccc(COc2ccc(OCCN3CCCCC3)cc2)cc1 | 57.1% (inactive)
O=C(NCC1CCCCC1)c1ccc(Cl)c(S(=O)(=O)N2CCOCC2)c1 | 114% (inactive)
CN(C)S(=O)(=O)c1ccc(C(=O)NCCc2ccco2)cc1 | 108% (inactive)
O=C(Cn1cc(C(F)(F)F)cc(Cl)c1=O)NCCc1ccc(Cl)cc1Cl | 103% (inactive)
O=C(NCCN1CCN(c2ccccc2)CC1)c1cccc(Br)c1 | 96.4% (inactive)
O=C(CCC(=O)N1CCOCC1)NCc1cccc(C(F)(F)F)c1 | 110% (inactive)
CN(CC(=O)Nc1cc(S(=O)(=O)N2CCCC2)ccc1Cl)Cc1ccc2c(c1)OCO2 | 92.1% (inactive)
CCCCOc1ccc(C(=O)NCC(=O)N2CCN(C(=O)c3ccco3)CC2)cc1 | 107% (inactive)
Cc1ccc(Cn2c([N+](=O)[O-])cnc2C)cc1 | 104% (inactive)
Cc1cc(Cl)c(OCCCSc2nc(C)cc(=O)[nH]2)c(Br)c1 | 107% (inactive)
COc1ccc(S(=O)(=O)N2CCCC2C(=O)Nc2ccc(C(C)=O)cc2)cc1 (stereo not drawn) | 112% (inactive)
CN1CCN(S(=O)(=O)c2ccc(C(=O)Nc3ccccc3)cc2)CC1 | 108% (inactive)
O=C(c1ccc(N2C(=O)C3CC=C(Cl)CC3C2=O)cc1)N1CCCCC1 (stereo not drawn) | 107% (inactive)
O=C(COC(=O)C12CC3CC(CC(Br)(C3)C1)C2)Nc1cccc(S(=O)(=O)N2CCOCC2)c1 | 99.3% (inactive)
CCN(CC)S(=O)(=O)c1ccc(Cl)c(NC(=O)COC(=O)C2CCCCC2)c1 | 102% (inactive)
CCOC(=O)N1CCN(C(=O)c2ccc(CS(=O)Cc3ccc(C)cc3)o2)CC1 (stereo not drawn) | 107% (inactive)
COc1cccc(NC(=O)Nc2ccc3nc(C)c(C)nc3c2)c1 | 82.2% (inactive)
COc1ccc(Nc2ccccc2N)cc1 | 90.2% (inactive)
Cc1cc(C)n(C(=O)c2sc3cc(F)ccc3c2Cl)n1 | 107% (inactive)
CCN(CC)C(=O)N1CCN(S(=O)(=O)c2ccc(C)cc2)CC1 | 96.8% (inactive)
Cc1ccc(S(=O)(=O)N2CCN(C(=O)CNC(=O)c3ccc(Cl)cc3)CC2)cc1 | 96.1% (inactive)
Cc1ncc([N+](=O)[O-])n1Cc1cccc(F)c1 | 104% (inactive)
O=C(O)C1CCC(Cn2c(SCc3cc(=O)n4cc(Cl)ccc4n3)nc3ccsc3c2=O)CC1 (stereo not drawn) | 111% (inactive)
Cc1cc(=O)oc2c3c(cc(OCC(=O)NCc4ccncc4)c12)OC(C)(C)CC3 | 110% (inactive)
COc1ccc([N+](=O)[O-])cc1NC(=O)c1ccc(N(Cc2ccccc2C)S(C)(=O)=O)cc1 | 111% (inactive)
COC(=O)c1ccccc1NC(=O)C1CCN(C(=O)c2cc(OC)cc(OC)c2)CC1 | 108% (inactive)

Structure (SMILES) | viability
CCOCC(=O)Nc1ccc(S(=O)(=O)N2CCC(c3nc4ccccc4[nH]3)CC2)cc1 | 106% (inactive)
O=C(OCCOc1cccc(Cl)c1)c1ccc(F)c(S(=O)(=O)N2CCOCC2)c1 | 109% (inactive)
O=C(CC1=NCCNC(c2ccccc2)C1)c1ccccc1O (stereo not drawn) | 115% (inactive)
Cc1ccc(OCCOC(=O)c2cc(S(=O)(=O)N3CCCCC3)ccc2N2CCOCC2)cc1 | 92.3% (inactive)
CC(=O)Nc1ccc(S(=O)(=O)NC2CCSc3ccccc32)cc1 (stereo not drawn) | 110% (inactive)
CCOC(=O)c1ccc(S(=O)(=O)N2CCN(C3CCCC3)CC2)cc1 | 102% (inactive)
CCCCn1nc(C(=O)N2CCN(S(=O)(=O)c3ccccc3)CC2)c2ccccc2c1=O | 100% (inactive)
CCCNC(=O)c1nc2ncc(Br)cn2n1 | 103% (inactive)
Cn1c(CNC(=O)CNC(=O)c2ccc(F)cc2)cc(=O)n(C)c1=O | 100% (inactive)
COc1ccc(C2=Nc3cc(C)ccc3OC2)cc1 | 108% (inactive)
CCC1(C)NC(=O)N(CC(=O)N2N=C(c3ccccc3)CC2c2ccc(OC)cc2)C1=O (stereo not drawn) | 103% (inactive)
COc1ccc(N2CC(C(=O)NC(C)C(=O)NCc3ccccc3OC)CC2=O)cc1 (stereo not drawn) | 104% (inactive)
Cc1ccccc1C(=O)NCC(=O)N1CCN(C/C=C/c2ccccc2)CC1 | 83.1% (inactive)
CC(=O)c1ccc(-c2csc(N3CCC(C(N)=O)CC3)n2)cc1 | 70.7% (inactive)
CCOC(=O)C1CCCN(S(=O)(=O)c2ccc(F)c(C(=O)Nc3ccc(F)c(F)c3)c2)C1 (stereo not drawn) | 91.6% (inactive)
CN(C)S(=O)(=O)c1cccc(-n2sc3ccccc3c2=O)c1 | 35.5%
Cc1ccc(NC(=O)COC(=O)CCc2c[nH]c3ccccc23)c(C)c1 | 122% (inactive)
CCOc1ccc(CCNC(=O)CCS(=O)(=O)c2ccc(C)cc2)cc1OCC | 90.1% (inactive)
CC1CCCCC1NC(=O)COC(=O)c1ccc2ncsc2c1 (stereo not drawn) | 92.6% (inactive)
CCCc1nnc(NC(=O)c2ccc(S(=O)(=O)N(C)c3ccccc3OC)cc2)s1 | 59.6% (inactive)
O=C(NNS(=O)(=O)c1ccc2ccccc2c1)c1cccs1 | 110% (inactive)
O=C(NCc1cccnc1)C(=O)NCC(c1ccco1)N1CCN(c2ccccc2)CC1 (stereo not drawn) | 106% (inactive)
COCCCN1CCc2[nH]c(=S)[nH]c(=O)c2C1 | 102% (inactive)
Cc1ccccc1C(=O)N1CCC(C(=O)Nc2ccc(C)c(S(=O)(=O)N3CCCCC3)c2)CC1 | 15.6%
CCOC(=O)c1c(C=O)c2ccccc2n1CC | 104% (inactive)
Cc1ccc(C(=O)NCCCN2CCOCC2)c(C)c1 | 108% (inactive)

Structure (SMILES) | viability
CCOC(=O)c1c(N2C(=O)CC(Sc3ccccc3C(=O)O)C2=O)sc2c1CCCC2 (stereo not drawn) | 98% (inactive)
CC(C)(C)NC(=O)COc1ccc(CNCc2cccnc2)cc1 | 108% (inactive)
CC(Sc1nc2ccccc2[nH]1)C(=O)NC1CCCCC1C (stereo not drawn) | 98.6% (inactive)
O=C(NCCC1=CCCCC1)C(=O)NCC(c1ccco1)N1CCN(c2ccccc2F)CC1 (stereo not drawn) | 109% (inactive)
CN1CCN(S(=O)(=O)c2cccc(C(=O)Nc3cc(C(F)(F)F)ccc3N3CCCCC3)c2)CC1 | 102% (inactive)
COc1ccccc1CNC(=O)COc1ccc(C)cc1 | 99.1% (inactive)
COc1ccc(C(O)c2coc3ccc(O)c(CN(C)C)c23)cc1 (stereo not drawn) | 87.4% (inactive)
COc1ccccc1NS(=O)(=O)c1cc(NC(=O)CNC(=O)c2cc(C)cc(C)c2)ccc1C | 61.6% (inactive)
COc1ccc(/C=C2\SC(=S)N(CCC(=O)N3CCOCC3)C2=O)cc1 | 90.8% (inactive)
Cc1ccc(N2CC(C(=O)NC3=NCCS3)CC2=O)cc1 (stereo not drawn) | 102% (inactive)
COc1ccc(NC(=O)CC2C(=O)N(Cc3ccccc3)C(=S)N2CCN2CCOCC2)cc1 (stereo not drawn) | 98.8% (inactive)
O=C(CS(=O)(=O)Cc1ccccc1)N1CCc2ccccc21 | 102% (inactive)
CCOc1ccc(-c2nc(N)ncc2-c2ccccc2)c(O)c1 | 105% (inactive)
Cc1ccc(O)c(CCc2ccccc2)n1 | 116% (inactive)
COc1ccc(NC(=O)CSCC(=O)Nc2cccc(S(=O)(=O)N3CCCCCC3)c2)cc1 | 68.7% (inactive)
CCC(C(=O)Nc1ccccc1)c1ccccc1 (stereo not drawn) | 98.3% (inactive)
Cc1cccc(NC(=O)C2CCN(S(=O)(=O)c3c(C)[nH]c(=O)[nH]c3=O)CC2)c1 | 110% (inactive)
COCc1c(C(=O)Nc2cccc(S(=O)(=O)N3CCCCC3)c2)oc2ccccc12 | 78.5% (inactive)
O=C1CC(c2nc3ccccc3[nH]2)CN1Cc1ccccc1 (stereo not drawn) | 103% (inactive)
Cc1sc2ncnc(NCC(C)(C)N3CCOCC3)c2c1C | -4.46%
CCN(CC)CCNC(=O)CCCNC(=O)Cn1cnc2sc(C)c(C)c2c1=O | 104% (inactive)
COc1ccc(S(=O)(=O)N2CCCCC2)cc1NC(=O)c1cnc(C)cn1 | 105% (inactive)
CCOC(=O)c1ccc(NC(=O)CN2C(=O)NC3(CCCCCCC3)C2=O)cc1 | 98.6% (inactive)
Cc1ccc(S(=O)(=O)N2CCN(S(=O)(=O)N(C)C)CC2)c(C)c1 | 105% (inactive)
NC(=O)C1CCN(c2nc(-c3cc4ccccc4o3)cs2)CC1 | 109% (inactive)
COc1ccc(CNC(=O)c2cccnc2SC)cc1OC | 101% (inactive)
